These results are taken from PMC6015499 (Journal of medicinal chemistry, 2017).

A value given as a limit tells only on which side of the number the result lay.

System in the first data set: not listed separately
The data set can be described thus: PAMPA permeability.
Details: not given
Type of data set: in vitro ADME. (In general: The PAMPA barrier holds no transporters, so it reflects passive diffusion.)
Turning to `Cc1ccc(-c2nc(CN3CCC(C(=O)NCCCN4C[C@H](C)C[C@H](C)C4)CC3)c(C)o2)cc1C` [7x, N-(3-(cis-3,5-Dimethylpiperidin-1-yl)propyl)-1-((2-(3,4-dimethylphenyl)-5-methyloxazol-4-yl)methyl)piperidine-4-carboxamide], the PAMPA permeability was 219.4 1×10^−6 cm/s. `CC[C@@H]1C[C@H](CC)CN(CCCNC(=O)C2CCN(Cc3nc(-c4c(F)cccc4F)oc3C)CC2)C1` [7kk, N-(3-(cis-3,5-Diethylpiperidin-1-yl)propyl)-1-((2-(2,6-difluorophenyl)-5-methyloxazol-4-yl)methyl)piperidine-4-carboxamide]: the PAMPA permeability is reported as 129.9 1×10^−6 cm/s. With `Cc1cccc(Cl)c1-c1nc(CN2CCC(C(=O)NCCCN3CCCC(C)C3)CC2)c(C)o1` (racemic) [7oo, (±)-1-((2-(2-Chloro-6-methylphenyl)-5-methyloxazol-4-yl)-methyl)-N-(3-(3-methylpiperidin-1-yl)propyl)piperidine-4-carboxamide], the PAMPA permeability is 650.6 1×10^−6 cm/s.

`Cc1cccc(-c2nc(CN3CCC(C(=O)NCCCN4C[C@H](C)C[C@H](C)C4)CC3)c(C)o2)c1` [7t, N-(3-(cis-3,5-Dimethylpiperidin-1-yl)propyl)-1-((5-methyl-2-(mtolyl)oxazol-4-yl)methyl)piperidine-4-carboxamide]: the PAMPA permeability is on record as 279.1 1×10^−6 cm/s. The same measure, in the same setting: for `COc1ccc(-c2nc(CN3CCC(C(=O)NCCCN4C[C@H](C)C[C@H](C)C4)CC3)c(C)o2)cc1OC` [7yy] the value was 81.9 1×10^−6 cm/s; for `Cc1oc(-c2ccc(Cl)cc2)nc1CN1CCC(C(=O)NCCCN2C[C@H](C)C[C@H](C)C2)CC1` [7ff, N-(3-(cis-3,5-Dimethylpiperidin-1-yl)propyl)-1-((2-(4-chlorophenyl)-5-methyloxazol-4-yl)methyl)piperidine-4-carboxamide], >635.0 1×10^−6 cm/s; for `CC[C@@H]1C[C@H](CC)CN(CCCNC(=O)C2CCN(Cc3nc(-c4ccccc4C)oc3C)CC2)C1` [7c, N-(3-(cis-3,5-Diethylpiperidin-1-yl)propyl)-1-((5-methyl-2-(otolyl)oxazol-4-yl)methyl)piperidine-4-carboxamide], 1267 1×10^−6 cm/s. On the same count and under the same terms, for `Cc1cccc(C)c1-c1nc(CN2CCC(C(=O)NCCCN3C[C@H](C)C[C@H](C)C3)CC2)c(C)o1` [7w, N-(3-(cis-3,5-Dimethylpiperidin-1-yl)propyl)-1-((2-(2,6-dimethylphenyl)-5-methyloxazol-4-yl)methyl)piperidine-4-carboxamide] the value was 253.9 1×10^−6 cm/s; for `CCCN(CCC)CCNC(=O)C1CCN(Cc2nc(-c3ccccc3C)oc2C)CC1` [7p, N-(2-(Dipropylamino)ethyl)-1-((5-methyl-2-(o-tolyl)oxazol-4-yl)-methyl)piperidine-4-carboxamide], 913.1 1×10^−6 cm/s; for `Cc1ccccc1-c1nc(CN2CCC(C(=O)NCCCN3CCC(C(C)C)CC3)CC2)c(C)o1` [7e, N-(3-(4-Isopropylpiperidin-1-yl)propyl)-1-((5-methyl-2-(o-tolyl)-oxazol-4-yl)methyl)piperidine-4-carboxamide], 395.6 1×10^−6 cm/s. On the same count and under the same terms, in the case of `Cc1ccccc1-c1nc(CN2CCC(C(=O)NCCCN3CC(C)(C)CC(C)(C)C3)CC2)c(C)o1` [7d, 1-((5-Methyl-2-(o-tolyl)oxazol-4-yl)methyl)-N-(3-(cis-3,3,5,5-tetramethylpiperidin-1-yl)propyl)piperidine-4-carboxamide] it was >1397 1×10^−6 cm/s; in that of `Cc1cccc(Cl)c1-c1nc(CN2CCC(C(=O)NCCCN3C[C@H](C)C[C@H](C)C3)CC2)c(C)o1` [7nn, N-(3-(cis-3,5-Dimethylpiperidin-1-yl)propyl)-1-((2-(2-chloro-6-methylphenyl)-5-methyloxazol-4-yl)methyl)piperidine-4-carboxamide], 196.3 1×10^−6 cm/s. On to `Cc1cc(C)cc(-c2nc(CN3CCC(C(=O)NCCCN4C[C@H](C)C[C@H](C)C4)CC3)c(C)o2)c1` [7z, N-(3-(cis-3,5-Dimethylpiperidin-1-yl)propyl)-1-((2-(3,5-dimethylphenyl)-5-methyloxazol-4-yl)methyl)piperidine-4-carboxamide], for which the PAMPA permeability is given as 864 1×10^−6 cm/s. Take `COc1cccc(Cl)c1-c1nc(CN2CCC(C(=O)NCCCN3C[C@H](C)C[C@H](C)C3)CC2)c(C)o1` [7uu, N-(3-(cis-3,5-Dimethylpiperidin-1-yl)propyl)-1-((2-(2-chloro-6-methoxyphenyl)-5-methyloxazol-4-yl)methyl)piperidine-4-carboxamide]: the PAMPA permeability is given as 51.0 1×10^−6 cm/s. For the compound `Cc1oc(-c2c(C)c(C)c(C)c(C)c2C)nc1CN1CCC(C(=O)NCCCN2C[C@H](C)C[C@H](C)C2)CC1` [7cc, N-(3-(cis-3,5-Dimethylpiperidin-1-yl)propyl)-1-((2-(2,3,4,5,6-pentamethylphenyl)-5-methyloxazol-4-yl)methyl)piperidine-4-carboxamide], the PAMPA permeability is reported as 455.2 1×10^−6 cm/s. Regarding `Cc1ccccc1-c1nc(CN2CCC(C(=O)NCCCN3C[C@H](C)C[C@@H](C)C3)CC2)c(C)o1` (racemic) [7b, (±)-N-(3-(trans-3,5-Dimethylpiperidin-1-yl)propyl)-1-((5-methyl-2-(o-tolyl)oxazol-4-yl)methyl)piperidine-4-carboxamide], the PAMPA permeability is recorded as 553.7 1×10^−6 cm/s. On the same count and under the same terms, in the case of `Cc1ccccc1-c1nc(CN2CCC(C(=O)NCCCN3CCC(C)CC3)CC2)c(C)o1` [7g, N-(3-(4-Methylpiperidin-1-yl)propyl)-1-((5-methyl-2-(o-tolyl)-oxazol-4-yl)methyl)piperidine-4-carboxamide] it was 424.7 1×10^−6 cm/s; in that of `Cc1ccccc1-c1nc(CN2CCC(C(=O)N3CCN(C4CCN(C)CC4)CC3)CC2)c(C)o1` [7r, (1-((5-Methyl-2-(o-tolyl)oxazol-4-yl)methyl)piperidin-4-yl)(4-(1-methylpiperidin-4-yl)piperazin-1-yl)methanone], <3.2 1×10^−6 cm/s; in that of `Cc1oc(-c2c(F)cccc2F)nc1CN1CCC(C(=O)NCCCN2C[C@H](C)C[C@H](C)C2)CC1` [7jj, N-(3-(cis-3,5-Dimethylpiperidin-1-yl)propyl)-1-((2-(2,6-difluorophenyl)-5-methyloxazol-4-yl)methyl)piperidine-4-carboxamide], 82.4 1×10^−6 cm/s. With `Cc1ccccc1-c1nc(CN2CCC(C(=O)NCCCN3[C@H](C)CCC[C@@H]3C)CC2)c(C)o1` [7i, N-(3-(cis-2,6-Dimethylpiperidin-1-yl)propyl)-1-((5-methyl-2-(otolyl)oxazol-4-yl)methyl)piperidine-4-carboxamide], the PAMPA permeability was 55.4 1×10^−6 cm/s. Same read-out and setting: in the case of `Cc1ccc2ccccc2c1-c1nc(CN2CCC(C(=O)NCCCN3C[C@H](C)C[C@H](C)C3)CC2)c(C)o1` [7bbb, N-(3-(cis-3,5-Dimethylpiperidin-1-yl)propyl)-1-((5-methyl-2-(2-methylnaphthalen-1-yl)oxazol-4-yl)methyl)piperidine-4-carboxamide] it was 547.1 1×10^−6 cm/s. Same read-out and setting: for `Cc1ccccc1-c1nc(CN2CCC(C(=O)NCCCN3CCCCC3)CC2)c(C)o1` [7h, N-(3-(Piperidin-1-yl)propyl)-1-((5-methyl-2-(o-tolyl)oxazol-4-yl)-methyl)piperidine-4-carboxamide] the value was 34.5 1×10^−6 cm/s; for `Cc1oc(-c2ccccc2Cl)nc1CN1CCC(C(=O)NCCCN2C[C@H](C)C[C@H](C)C2)CC1` [7dd, N-(3-(cis-3,5-Dimethylpiperidin-1-yl)propyl)-1-((2-(2-chlorophenyl)-5-methyloxazol-4-yl)methyl)piperidine-4-carboxamide], 352.4 1×10^−6 cm/s; for `CCc1ccccc1-c1nc(CN2CCC(C(=O)NCCCN3C[C@H](C)C[C@H](C)C3)CC2)c(C)o1` [7v, N-(3-(cis-3,5-Dimethylpiperidin-1-yl)propyl)-1-((2-(2-ethylphenyl)-5-methyloxazol-4-yl)methyl)piperidine-4-carboxamide], 106.1 1×10^−6 cm/s. The same measure, in the same setting: for `Cc1ccc(-c2nc(CN3CCC(C(=O)NCCCN4C[C@H](C)C[C@H](C)C4)CC3)c(C)o2)c(C)c1` [7y, N-(3-(cis-3,5-Dimethylpiperidin-1-yl)propyl)-1-((2-(2,4-dimethylphenyl)-5-methyloxazol-4-yl)methyl)piperidine-4-carboxamide] the value was 353.1 1×10^−6 cm/s; for `CCN(CC)CCCCNC(=O)C1CCN(Cc2nc(-c3ccc(OC)c(OC)c3)oc2C)CC1` [7zz, N-(4-(Diethylamino)butyl)-1-((2-(3,4-dimethoxyphenyl)-5-methyloxazol-4-yl)methyl)piperidine-4-carboxamide], 10.4 1×10^−6 cm/s.

On to `Cc1oc(-c2ccc(Cl)c(Cl)c2)nc1CN1CCC(C(=O)NCCCN2C[C@H](C)C[C@H](C)C2)CC1` [7ii, N-(3-(cis-3,5-Dimethylpiperidin-1-yl)propyl)-1-((2-(3,4-dichlorophenyl)-5-methyloxazol-4-yl)methyl)piperidine-4-carboxamide], for which the PAMPA permeability is 522 1×10^−6 cm/s. Still for that read-out and setting: in the case of `Cc1ccccc1-c1nc(CN2CCC(C(=O)NCCCN3CCC(C)(C)CC3)CC2)c(C)o1` [7f, N-(3-(4,4-Dimethylpiperidin-1-yl)propyl)-1-((5-methyl-2-(o-tolyl)-oxazol-4-yl)methyl)piperidine-4-carboxamide] it was 241.4 1×10^−6 cm/s; in that of `Cc1ccccc1-c1nc(CN2CCC(C(=O)N3CCN(CCN(C)C)CC3)CC2)c(C)o1` [7s, (4-(2-(Dimethylamino)ethyl)piperazin-1-yl)(1-((5-methyl-2-(otolyl)oxazol-4-yl)methyl)piperidin-4-yl)methanone], 14 1×10^−6 cm/s.

System in another data set: not listed separately
The data set is described as follows: In vivo pharmacokinetics and tissue distribution in mice. The settings on record: mouse, single i.p. dose 1 mg/kg. Set-up: species or system male CD-1 mice.
Regarding `Cc1oc(-c2ccc(Cl)c(Cl)c2)nc1CN1CCC(C(=O)NCCCN2C[C@H](C)C[C@H](C)C2)CC1` [7ii, N-(3-(cis-3,5-Dimethylpiperidin-1-yl)propyl)-1-((2-(3,4-dichlorophenyl)-5-methyloxazol-4-yl)methyl)piperidine-4-carboxamide], the “liver concentration throughout 24 h post-administration” value fell in the range of 3.33 to 9.82 µM.

The next data set deals with Huh7.5.1 cells. The data set is described as follows: ATPlite cytotoxicity assay. The data set is classed as cell-based.
Details: not given
On the technique in general: Cellular ATP, detected with luciferase, serves as a proxy for viable cell number.
As to `Cc1oc(-c2ccc(Cl)c(Cl)c2)nc1CN1CCC(C(=O)NCCCN2C[C@H](C)C[C@H](C)C2)CC1` [7ii, N-(3-(cis-3,5-Dimethylpiperidin-1-yl)propyl)-1-((2-(3,4-dichlorophenyl)-5-methyloxazol-4-yl)methyl)piperidine-4-carboxamide], the “cytotoxicity in combination (ATPlite)” value is listed as “without significant cytotoxicity”.

System in another data set: not listed separately
The data set can be described thus: ALT level in mouse serum during pharmacokinetics study. The data set is classed as in vivo. The settings on record: mouse model.
In the case of `Cc1oc(-c2ccc(Cl)c(Cl)c2)nc1CN1CCC(C(=O)NCCCN2C[C@H](C)C[C@H](C)C2)CC1` [7ii, N-(3-(cis-3,5-Dimethylpiperidin-1-yl)propyl)-1-((2-(3,4-dichlorophenyl)-5-methyloxazol-4-yl)methyl)piperidine-4-carboxamide], the “hepatotoxicity indicated by ALT level” value was “without obvious hepatotoxicity”.
